The numbers were not newly measured in patent publication US20240050950A1, “GRADIENT-BASED MICROFLUIDIC CIRCUIT, DEVICE, AND METHOD FOR PERFORMING AN ASSAY” (priority 2020, published 2024), which cites them from elsewhere.

Structures can show the parent of a compound that is named as a salt. Square brackets hold non-standard residues; d marks the D form. Peptide text beside a SMILES is read from it. * marks the point of attachment. dPhe(4-NHCONH2) = NC(=O)Nc1ccc(C[C@@H](N)C(=O)O)cc1; Dihydroorotyl(S) = O=C1C[C@@H](C(=O)*)NC(=O)N1; dPhe(4-Cl) = N[C@H](Cc1ccc(Cl)cc1)C(=O)O; Phe(4-NH2) = Nc1ccc(C[C@H](N)C(=O)O)cc1; d2Nal = N[C@H](Cc1ccc2ccccc2c1)C(=O)O; Lys(iPr) = CC(C)NCCCC[C@H](N)C(=O)O; d3Pal = N[C@H](Cc1cccnc1)C(=O)O

For the first data set the following is noted: Table 1, antimicrobial agents/drugs; cited from earlier work.
For `[H]/N=C(\N/C(=N/[H])NCCCCCCNC(=N)NC(=N)Nc1ccc(Cl)cc1)Nc1ccc(Cl)cc1` [Chlorhexidine], the Molar volume is reported as 363.3 ± 7.0 cm^3. In the case of `CO[C@@H]1[C@H](O)C[C@@H](O[C@@H]2C[C@H](Oc3cc4cc5c(c(O)c4c(O)c3C)C(=O)[C@@H](O[C@H]3C[C@@H](O[C@H]4C[C@@H](O[C@H]6C[C@](C)(O)[C@@H](OC(C)=O)[C@H](C)O6)[C@H](O)[C@@H](C)O4)[C@H](O)[C@@H](C)O3)[C@H]([C@H](OC)C(=O)[C@@H](O)[C@@H](C)O)C5)O[C@H](C)[C@@H]2OC(C)=O)O[C@@H]1C` [Chromomycin A3], the Molar volume is 827.2 ± 5.0 cm^3.

For `C=Cc1cc(OC)c2c(c1)c(=O)oc1c2cc(OC)c2c(O)ccc([C@H]3O[C@@H](C)[C@@H](O)[C@](C)(O)[C@@H]3O)c21` [Chrysomycin A (MFCD07370133), Chrysomycin A], the Molar volume is 361.7 ± 3.0 cm^3. Take `COc1cc2c(oc(=O)c3cc(C)cc(OC)c32)c2c([C@@H]3O[C@H](C)[C@H](O)[C@@](C)(O)[C@H]3O)ccc(O)c12` [Chrysomycin B (MFCD07370132), Chrysomycin B]: the Molar volume is listed as 352.0 ± 3.0 cm^3. As for `CC[C@H]1OC(=O)[C@H](C)[C@@H](O[C@H]2C[C@@](C)(OC)[C@@H](O)[C@H](C)O2)[C@H](C)[C@@H](O[C@@H]2O[C@H](C)C[C@H](N(C)C)[C@H]2O)[C@](C)(OC)C[C@@H](C)C(=O)[C@H](C)[C@@H](O)[C@]1(C)O` [Clarithromycin], the Molar volume is given as 631.9 ± 5.0 cm^3. Consider `CC(C)/N=c1\cc2n(-c3ccc(Cl)cc3)c3ccccc3nc-2cc1Nc1ccc(Cl)cc1` [Clofazimine], for which the Molar volume is reported as 366.0 ± 7.0 cm^3.

As for `Clc1ccccc1C(c1ccccc1)(c1ccccc1)n1ccnc1` [Clotrimazole], the Molar volume was 302.7 ± 7.0 cm^3. For `C/C=C/[C@H]1O[C@@](O)([C@@H](C)[C@H](O)[C@H](C)[C@H]2OC(=O)/C(OC)=C/C(C)=C/[C@@H](C)[C@@H](O)[C@@H](CC)[C@@H](O)[C@H](C)C/C(C)=C/C=C/[C@@H]2OC)C[C@@H](O[C@H]2C[C@@H](O)[C@H](OC(N)=O)[C@@H](C)O2)[C@@H]1C` [Concanamycin A (Folimycin), Concanamycin A], the Molar volume is 703.1 ± 7.0 cm^3. In the case of `Nc1ncnc2c1ncn2[C@@H]1O[C@H](CO)C[C@H]1O` [Cordycepin (3′-Deoxyadenosine), 3′-Deoxyadenosine], the Molar volume is 130.8 ± 7.0 cm^3. Turning to `CO[C@H]1[C@H](OC(=O)c2ccc(C)[nH]2)[C@H](O)[C@@H](Oc2ccc3c(O)c(NC(=O)c4c[nH]c(C(=O)Nc5c(O)c6ccc(O[C@H]7OC(C)(C)[C@@H](OC)[C@H](OC(=O)c8ccc(C)[nH]8)[C@@H]7O)c(C)c6oc5=O)c4C)c(=O)oc3c2C)OC1(C)C` [Coumermycin Al, Coumermycin A1], the Molar volume is reported as 718.6 ± 5.0 cm^3. In the case of `C=C1[C@@H](C)[C@H]2[C@H](Cc3ccccc3)NC(=O)[C@]23OC(=O)/C=C/[C@H](O)CCC[C@@H](C)C/C=C/[C@H]3[C@@H]1O` [Cytochalasin B (Phomin), Cytochalasin B], the Molar volume is 396.8 ± 5.0 cm^3. Consider `C=C1[C@@H](C)[C@H]2[C@H](Cc3ccccc3)NC(=O)[C@]23[C@H](OC(C)=O)/C=C/[C@@](C)(O)C(=O)[C@@H](C)C/C=C/[C@H]3[C@@H]1O` [Cytochalasin D (Zygosporin A, 1632828), Cytochalasin D], for which the Molar volume is 410.0 ± 5.0 cm^3. For the molecule `N[C@@H]1CONC1=O` [D-Cycloserine], the Molar volume is listed as 79.8 ± 3.0 cm^3.

Take `CC1(C)S[C@@H]2[C@H](NC(=O)[C@H](NC(=O)N3CCNC3=O)c3ccccc3)C(=O)N2[C@H]1C(=O)O` [D-α-([Imidazolidin-2-on-1-yl]carbonylamino)benzylpenicillin]: the Molar volume is 296.6 ± 5.0 cm^3. For `CCCCCCCCCC(=O)N[C@@H](Cc1c[nH]c2ccccc12)C(=O)N[C@H](CC(N)=O)C(=O)N[C@@H](CC(=O)O)C(=O)N[C@@H]1C(=O)NCC(=O)N[C@@H](CCCN)C(=O)N[C@@H](CC(=O)O)C(=O)N[C@H](C)C(=O)N[C@@H](CC(=O)O)C(=O)NCC(=O)N[C@H](CO)C(=O)N[C@@H]([C@H](C)CC(=O)O)C(=O)N[C@@H](CC(=O)c2ccccc2N)C(=O)O[C@@H]1C` [Daptomycin], the Molar volume is on record as 1110.7 ± 5.0 cm^3. As for `COc1cccc2c1C(=O)c1c(O)c3c(c(O)c1C2=O)C[C@@](O)(C(C)=O)C[C@@H]3O[C@H]1C[C@H](N)[C@H](O)[C@H](C)O1` [Daunorubicin (Daunomycin), Daunorubicin], the Molar volume is 339.4 ± 5.0 cm^3. With `CN(C)[C@@H]1C(O)=C(C(N)=O)C(=O)[C@@]2(O)C(O)=C3C(=O)c4c(O)ccc(Cl)c4[C@@H](O)[C@H]3C[C@@H]12` [Demeclocycline], the Molar volume was 265.1 ± 5.0 cm^3. `Oc1ccc(Cl)cc1Cc1cc(Cl)ccc1O` [Dichlorophene]: the Molar volume was 189.5 ± 3.0 cm^3.

For the molecule `Cc1onc(-c2c(Cl)cccc2Cl)c1C(=O)N[C@@H]1C(=O)N2[C@@H]1SC(C)(C)[C@@H]2C(=O)O` [Dicloxacillin], the Molar volume is 290.0 ± 5.0 cm^3.

Turning to `CN1CCN(c2cc3c(cc2F)c(=O)c(C(=O)O)cn3-c2ccc(F)cc2)CC1` [Difloxacin], the Molar volume is 283.2 ± 3.0 cm^3. `CN[C@@H]1[C@H](O[C@H]2[C@H](O[C@H]3[C@H](O)[C@@H](O)[C@H](NC(=N)N)[C@@H](O)[C@@H]3NC(=N)N)O[C@@H](C)[C@]2(O)CO)O[C@@H](CO)[C@H](O)[C@H]1O` [Dihydrostreptomycin]: the Molar volume is recorded as 293.4 ± 7.0 cm^3. With `Cc1ncc([N+](=O)[O-])n1C` [Dimetridazole], the Molar volume is listed as 103.4 ± 7.0 cm^3. For the molecule `COc1cccc2c1C(=O)c1c(O)c3c(c(O)c1C2=O)C[C@@](O)(C(=O)CO)C[C@@H]3O[C@H]1C[C@H](N)[C@H](O)[C@H](C)O1` [Doxorubicin], the Molar volume is on record as 336.6 ± 5.0 cm^3.

With `CCN1CCN(c2cc3c(cc2F)c(=O)c(C(=O)O)cn3C2CC2)CC1` [Enrofloxacin (Baytril), Enrofloxacin], the Molar volume is listed as 259.3 ± 3.0 cm^3. `CC[C@@H](CO)NCCN[C@@H](CC)CO` [Ethambutol ((+)-S,S-Ethambutol), Ethambutol]: the Molar volume is on record as 207.0 ± 3.0 cm^3. Take `COc1cc([C@@H]2c3cc4c(cc3[C@@H](O[C@@H]3O[C@@H]5CO[C@@H](C)O[C@H]5[C@H](O)[C@H]3O)[C@H]3COC(=O)[C@H]23)OCO4)cc(OC)c1O` [Etoposide]: the Molar volume is on record as 378.5 ± 5.0 cm^3.

Staying with this data set, now noted: Table 2, anticancer drugs; cited from earlier work.
With `Nc1nc(Cl)nc2c1ncn2[C@H]1C[C@H](O)[C@@H](CO)O1` [Cladribine], the Molar volume was 140.1 ± 7.0 cm^3.

For `Nc1nc(Cl)nc2c1ncn2[C@@H]1O[C@H](CO)[C@@H](O)[C@@H]1F` [Clofarabine], the Molar volume is recorded as 143.0 ± 7.0 cm^3.

On to `O=C(c1ccc(F)c(F)c1Nc1ccc(I)cc1F)N1CC(O)([C@@H]2CCCCN2)C1` [Cobimetinib], for which the Molar volume is 311.3 ± 3.0 cm^3. Take `C[C@@H](Oc1cc(-c2cnn(C3CCNCC3)c2)cnc1N)c1c(Cl)ccc(F)c1Cl` [Crizotinib (Xalkori), Crizotinib]: the Molar volume was 305.2 ± 7.0 cm^3. `Nc1ccn([C@@H]2O[C@H](CO)[C@@H](O)[C@@H]2O)c(=O)n1` [Cytarabine (Tarabine PFS), Cytarabine]: the Molar volume is 128.4 ± 7.0 cm^3.

Regarding `CC(C)(C)c1nc(-c2cccc(NS(=O)(=O)c3c(F)cccc3F)c2F)c(-c2ccnc(N)n2)s1` [Dabrafenib (Tafinlar), Dabrafenib], the Molar volume is 359.8 ± 3.0 cm^3. In the case of `COc1cc2ncnc(Nc3ccc(F)c(Cl)c3)c2cc1NC(=O)/C=C/CN1CCCCC1` [Dacomitinib (Vizimpro), Dacomitinib], the Molar volume is on record as 349.4 ± 3.0 cm^3. Take `CC(=O)N[C@H](Cc1ccc2ccccc2c1)C(=O)N[C@H](Cc1ccc(Cl)cc1)C(=O)N[C@H](Cc1cccnc1)C(=O)N[C@@H](CO)C(=O)N[C@@H](Cc1ccc(NC(=O)[C@@H]2CC(=O)NC(=O)N2)cc1)C(=O)N[C@H](Cc1ccc(NC(N)=O)cc1)C(=O)N[C@@H](CC(C)C)C(=O)N[C@@H](CCCCNC(C)C)C(=O)N1CCC[C@H]1C(=O)N[C@H](C)C(N)=O` [Degarelix] (Ac-[d2Nal][dPhe(4-Cl)][d3Pal]S[Phe(4-NH2)](Dihydroorotyl(S))[dPhe(4-NHCONH2)]L[Lys(iPr)]P[dA]-NH2): the Molar volume is reported as 1231.3 ± 3.0 cm^3. With `C[C@@H](CN1CC(=O)NC(=O)C1)N1CC(=O)NC(=O)C1` [Dexrazoxane Hydrochloride], the Molar volume is reported as 201.2 ± 3.0 cm^3. As to `CC(=O)O[C@@]12CO[C@@H]1C[C@H](O)[C@@]1(C)C(=O)[C@H](O)C3=C(C)[C@@H](OC(=O)[C@H](O)[C@@H](NC(=O)OC(C)(C)C)c4ccccc4)C[C@@](O)([C@@H](OC(=O)c4ccccc4)[C@H]21)C3(C)C` [Docetaxel (Taxotere), Docetaxel], the Molar volume was 585.7 ± 5.0 cm^3. Regarding `COc1cccc2c1C(=O)c1c(O)c3c(c(O)c1C2=O)C[C@@](O)(C(=O)CO)C[C@@H]3O[C@H]1C[C@H](N)[C@H](O)[C@H](C)O1` [Doxorubicin], the Molar volume was 336.6 ± 5.0 cm^3. Take `CC(C)(O)CNc1nc(Nc2ccnc(C(F)(F)F)c2)nc(-c2cccc(C(F)(F)F)n2)n1` [Enasidenib Mesylate]: the Molar volume is 320.4 ± 3.0 cm^3. As for `CNC(=O)c1ccc(N2C(=S)N(c3ccc(C#N)c(C(F)(F)F)c3)C(=O)C2(C)C)cc1F` [Enzalutamide (Xtandi), Enzalutamide], the Molar volume was 310.0 ± 5.0 cm^3. Take `C=C1C[C@@H]2CC[C@@]34C[C@H]5O[C@H]6[C@@H](O3)[C@H]3O[C@H](CC[C@@H]3O[C@H]6[C@H]5O4)CC(=O)C[C@@H]3[C@@H](OC)[C@@H](C[C@H](O)CN)O[C@H]3C[C@H]3O[C@@H](CC[C@@H]1O2)C[C@@H](C)C3=C` [Eribulin Mesylate]: the Molar volume is recorded as 563.2 ± 5.0 cm^3. In the case of `C#Cc1cccc(Nc2ncnc3cc(OCCOC)c(OCCOC)cc23)c1` [Erlotinib Hydrochloride (Tarceva), Erlotinib Hydrochloride], the Molar volume is 315.4 ± 5.0 cm^3.

For `COc1cc([C@@H]2c3cc4c(cc3[C@@H](O[C@@H]3O[C@@H]5CO[C@@H](C)O[C@H]5[C@H](O)[C@H]3O)[C@H]3COC(=O)[C@H]23)OCO4)cc(OC)c1OP(=O)(O)O` [Etopophos (Etoposide Phosphate), Etoposide Phosphate], the Molar volume is recorded as 406.7 ± 5.0 cm^3.

On to `CN(C)CCOc1ccc(/C(=C(/CCCl)c2ccccc2)c2ccccc2)cc1` [Fareston (Toremifene), Toremifene], for which the Molar volume is 367.6 ± 3.0 cm^3.
